# Experimental data published in patent US10906904B2, “ADO-resistant cysteamine analogs and uses thereof” (HORIZON ORPHAN LLC, priority 2015, dated 2021).
# Where two headings read alike, the source gives them in different places.
# Experiments:
# [1] = Cystine reactivity assay; settings: 30° C., percentage of 3 mM cysteamine
# Method: Cystine reactivity was assessed by incubating 3 mM test compound with 100 nM BODIPY® FL L-Cystine (Life Tech.) at 30° C., pH 7.4 in phosphate buffer. […] Compound cystine reactivity was expressed as a percentage of that of 3 mM cysteamine.
# Under resting conditions, the inherent fluorescence of BODIPY® FL L-cystine was very low due to the spatial proximity of the two BODIPY molecules causing quenching. Under chemical reaction (disruption of the S—S bond), the spatial distance was increased, the quenching lost, and measured fluorescence increased. Time (minutes) vs. fluorescence (relative fluorescence units—RFU) was plotted and linear regression analysis was performed to generate a slope value corresponding to the reaction rate in RFU/min and an R2 value.
# [2] = tested on: cystinotic human fibroblasts; test: Cystine depletion assay; assay type: cell-based; settings: for Emax: Homo sapiens, Fibroblast, 1 h; for Emax / Cystine Depletion (%): relative to cystine depletion by cysteamine (100%) at a similar concentration; for cystine depletion levels (in words): compared to cysteamine; for Cystine depletion: compound at 50 μM or 100 μM, Tables 1-3
# Method: The ability of test compounds to deplete cystine from cystinotic human fibroblasts (Coriell) was determined by incubating compounds with cells for 60 min at 37° C., 95% (v/v) air/5% (v/v) CO2 in Minimal Essential Media Eagle. Treated cell samples were subsequently harvested, then homogenized to ensure plasma and lysosomal membrane disruption. Protein was removed by acid precipitation and cystine in the supernatant measured using LC-MS/MS and HILIC chromatography. Protein levels were determined and cystine levels reported as nM per mg/ml protein. Cystine levels after test compound treatment were expressed as a percentage of that of untreated control cells.
# Compounds were assayed at a concentration of 50 μM or 100 μM according to the general methods described above.
# Cystine depletion levels for the compounds are expressed in Table 4 as a percent relative to the cystine depletion achieved by cysteamine (c.f. cysteamine 100%) at a similar concentration.
# Cystine depletion levels for each of the compounds in Table 5 are expressed as a percent relative to the cystine depletion achieved by cysteamine (c.f. cysteamine 100%) at a similar concentration.
# [3] = tested on: St-HdhQ^111/111 cells; test: Glutamate-induced neuronal excitotoxicity assay; assay type: cell-based; settings: STHdhQ111, 6 mM L-glutamate 24 hours, % of effect of 100 μM cysteamine; for viability at 10 µM: read-out: HdhQ^111/111 cell % survival (mean ± STD) Test Conc. 10 μM; for viability at 100 µM: read-out: HdhQ^111/111 cell % survival (mean ± STD) Test Conc. 100 μM
# Method: The ability of test compounds to inhibit glutamate-induced excitotoxicity (neuroprotection) in St-HdhQ^111/111 cells was determined by incubating compounds with cells for 60 min at 33° C., 95% (v:v) air/5% (v:v) CO2 in Dulbecco's Modified Eagle Media. Following this, excitotoxicity was induced by the addition of 6 mM L-glutamate for 24 hours. Cell viability was assessed by measuring ATP levels using a luminescent-based CellTitre Glo assay (Promega). Compound neuroprotection (% cell survival) was expressed as a % of the effect recorded with 100 μM cysteamine (denoted as 100% cell survival).
# [4] = target: T1, human recombinant ADO (Homo sapiens, UniProt Q96SZ5); assay type: in vitro ADME
# T1 sequence (Q96SZ5 1-270): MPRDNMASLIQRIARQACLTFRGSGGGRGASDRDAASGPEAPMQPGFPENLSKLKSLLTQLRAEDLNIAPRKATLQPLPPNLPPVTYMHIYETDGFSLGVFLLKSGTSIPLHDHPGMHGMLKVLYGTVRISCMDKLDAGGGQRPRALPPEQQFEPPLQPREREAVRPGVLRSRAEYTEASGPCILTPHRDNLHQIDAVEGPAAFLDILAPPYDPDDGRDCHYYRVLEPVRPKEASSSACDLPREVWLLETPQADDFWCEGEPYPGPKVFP
# Method: The rate of ADO metabolism was determined by incubating 15 mM test compound with 60 μg/ml human recombinant ADO and 20 nM MitoXpress® O2-sensitive fluorescent probe (Luxcel) at 37° C. in assay buffer/salt in a sealed assay chamber. The initial rate of fluorescence (excitation λ380 nm and emission λ650 nm) increase was used to measure ADO-dependent oxygen depletion activity. The ability of ADO to metabolize compounds and concomitantly consume oxygen was expressed relative to that of 15 mM cysteamine.
# [5] = Table 4, read-out: Cystine Depletion (%)
# [6] = Table 5, read-out: Cystine Depletion (%) Mean Value
structure (smiles),measurement,setting,value
N[C@H]1CCCC[C@@H]1S [Compound 42693],Cystine Reactivity Assay (30° C.) (%) Mean Value,[1]; Table 4,>90%
same,Emax,[2]; [5],110%
same,viability at 10 µM,[3],80 ± 10%
same,viability at 100 µM,[3],77 ± 9%
CN1CC[C@@H](S)C1,viability at 10 µM,[3],13 ± 13%
same,viability at 100 µM,[3],93 ± 9%
C[C@]1(S)CCCNC1 [Compound 151181],Cystine Reactivity Assay (30° C.) (%) Mean Value,[1]; Table 5,50-90%
same,Emax,[2]; [6],69%
same,viability at 10 µM,[3],3 ± 8%
same,viability at 100 µM,[3],90 ± 9%
N[C@H]1C[C@H](SS[C@H]2C[C@H](N)C2)C1 [Compound 151271],Emax,[2]; [6],27%
CC(C)(N)CS [Compound 3b],cystine depletion levels (in words),[2],similar
same,Cystine depletion,[2],97%
C[C@@]1(S)CCCNC1 [Compound 151182],Cystine Reactivity Assay (30° C.) (%) Mean Value,[1]; Table 5,59-90%
same,Emax,[2]; [6],59%
same,viability at 10 µM,[3],1 ± 5%
same,viability at 100 µM,[3],85 ± 11%
CC(C)N1CCC(S)CC1 [Compound 42458],Cystine Reactivity Assay (30° C.) (%) Mean Value,[1]; Table 4,>90%
same,Emax,[2]; [5],91%
CN1CC[C@@H](SS[C@H]2CCN(C)C2)C1 [Compound 42342],Emax,[2]; [5],91%
F[C@@H]1CNCC[C@H]1S,viability at 10 µM,[3],3 ± 7%
same,viability at 100 µM,[3],86 ± 10%
CN1C2CCC1CC(SSC1CC3CCC(C1)N3C)C2 (stereo not drawn) [Compound 42344],Emax,[2]; [5],38%
SCC1CCN1 (stereo not drawn) [Compound 42212],Cystine Reactivity Assay (30° C.) (%) Mean Value,[1]; Table 4,<50%
N[C@@H]1CCCC[C@H]1S [Compound 42692],Cystine Reactivity Assay (30° C.) (%) Mean Value,[1]; Table 4,>90%
same,Emax,[2]; [5],100%
same,viability at 10 µM,[3],82 ± 4%
same,viability at 100 µM,[3],71 ± 5%
NC1(CS)CC1 [Compound 41448],ADO Metabolism Assay (%) Mean Value,"[4]; human, 15 mM",25-75%
same,Emax,[2]; [5],55%
"C[C@@H](N)CS (single isomer, unassigned) [Compound 42099]",Cystine Depletion (%),[2]; Table 4,79%
CC1(C)CNCCC1S (stereo not drawn) [Compound 42609],Emax,[2]; [5],17%
CC1(SSC2(C)CCNCC2)CCNCC1 [Compound 151272],Emax,[2]; [6],11%
CC1(S)CC(N)C1 (stereo not drawn) [Compound 152071],Emax,[2]; [6],70%
O=c1[nH][se]c2ccccc12 [Compound 145565],Emax,[2]; [6],31%
NC1(CS)CC1 [Compound 3d],metabolism by ADO compared to cysteamine (in words),[4],significantly reduced metabolism by ADO compared to cysteamine
same,ADO metabolism,"[4]; human, 15 mM",14%
same,cystine depletion levels (in words),[2],slightly decreased
same,Cystine depletion,[2],55%
C[C@H]1CCNC[C@@H]1S [Compound 42612],Emax,[2]; [5],98%
Nc1nc2[nH]cnc2c(=S)[nH]1 [Compound 1141],Cystine Reactivity Assay (30° C.) (%) Mean Value,[1]; Table 5,<50%
same,Emax,[2]; [6],0%
N[C@H]1C[C@@H](SS[C@H]2C[C@@H](N)C2)C1 [Compound 151270],Emax,[2]; [6],3%
SCC1CNC1 [Compound 145585],Cystine Reactivity Assay (30° C.) (%) Mean Value,[1]; Table 5,>90%
same,Emax,[2]; [6],11%
same,viability at 10 µM,[3],13 ± 10%
same,viability at 100 µM,[3],100 ± 9%
Oc1ccc2ccccc2c1SSc1c(O)ccc2ccccc12 [Compound 2415],Emax,[2]; [6],14%
CNCCS [Compound 18781],Cystine Depletion (%),[2]; Table 4,92%
CSC1(C)CCNCC1 [Compound 145691],Emax,[2]; [6],0%
N[C@H]1CC[C@H](S)CC1 [Compound 42492],Cystine Reactivity Assay (30° C.) (%) Mean Value,[1]; Table 4,<50%
CC(=O)SC1CCNCC1 [Compound 145692],Emax,[2]; [6],75%
FC1(F)CN[C@@H](CS)C1 [Compound 149607],Cystine Reactivity Assay (30° C.) (%) Mean Value,[1]; Table 5,>90%
same,Emax,[2]; [6],17%
same,viability at 10 µM,[3],32 ± 9%
same,viability at 100 µM,[3],98 ± 12%
C[C@H]1C[C@@H](S)CCN1 [Compound 42618],Emax,[2]; [5],49%
C1CNC[C@H](SS[C@@H]2CCCNC2)C1 [Compound 145609],ADO Metabolism Assay (%) Mean Value,"[4]; human, 15 mM",<25%
same,Emax,[2]; [6],121%
FC1(F)CN[C@H](CS)C1 [Compound 149611],Cystine Reactivity Assay (30° C.) (%) Mean Value,[1]; Table 5,>90%
same,Emax,[2]; [6],27%
same,viability at 10 µM,[3],35 ± 13%
same,viability at 100 µM,[3],102 ± 13%
NC1CCC(S)C1 (stereo not drawn) [Compound 42691],Cystine Reactivity Assay (30° C.) (%) Mean Value,[1]; Table 4,50-90%
SC1CNC1 [Compound 2a],metabolism by ADO compared to cysteamine (in words),[4],significantly reduced metabolism by ADO compared to cysteamine
same,cystine depletion levels (in words),[2],slightly decreased
same,Cystine depletion,[2],82%
N[C@H]1C[C@H](S)C1 [Compound 142460],Cystine Reactivity Assay (30° C.) (%) Mean Value,[1]; Table 5,50-90%
same,Emax,[2]; [6],78%
CN1CC(SSC2CN(C)C2)C1 [Compound 42151],Emax,[2]; [5],133%
CN1CC[C@H](S)C1,viability at 10 µM,[3],11 ± 11%
same,viability at 100 µM,[3],95 ± 6%
CN1CCCC(SSC2CCCN(C)C2)C1 (stereo not drawn) [Compound 42152],Emax,[2]; [5],126%
"C[C@H](N)CS (single isomer, unassigned) [Compound 42-98]",Cystine Depletion (%),[2]; Table 4,70%
FC1(F)CCNC[C@@H]1S [Compound 42694],Cystine Reactivity Assay (30° C.) (%) Mean Value,[1]; Table 4,<50%
same,Emax,[2]; [5],20%
N[C@@H]1CCCC[C@@H]1S [Compound 42610],Cystine Reactivity Assay (30° C.) (%) Mean Value,[1]; Table 4,>90%
same,Emax,[2]; [5],91%
same,viability at 10 µM,[3],19 ± 6%
same,viability at 100 µM,[3],77 ± 8%
SC[C@@H]1CCCCN1 [Compound 145592],Cystine Reactivity Assay (30° C.) (%) Mean Value,[1]; Table 5,>90%
same,Emax,[2]; [6],156%
same,viability at 10 µM,[3],17 ± 10%
same,viability at 100 µM,[3],88 ± 8%
CC1(S)CCNC1 (stereo not drawn) [Compound 150731],Cystine Reactivity Assay (30° C.) (%) Mean Value,[1]; Table 5,>90%
same,Emax,[2]; [6],58%
C[N+]1(C)CCC(S)CC1,viability at 10 µM,[3],1 ± 6%
same,viability at 100 µM,[3],16 ± 7%
CN1CC[C@H](SS[C@H]2CCN(C)C2)C1 [Compound 42343],Emax,[2]; [5],84%
Sc1ccncc1 [Compound 42338],Cystine Reactivity Assay (30° C.) (%) Mean Value,[1]; Table 4,<50%
CCN1CCC(S)CC1 [Compound 42391],Cystine Reactivity Assay (30° C.) (%) Mean Value,[1]; Table 4,>90%
same,Emax,[2]; [5],60%
CC(C)(N)CS [Compound 42097],Emax,[2]; [5],97%
